For this data set, the system named is red blood cell. In words: red blood cell (RBC) lysis assay. The source says: The degradation products were obtained by dissolving polyacetal 22 in phosphate buffered saline (PBS), adjusting the pH to 1–2 by the addition of HCl to allow the polyacetal to degrade, then adding a small amount of NaOH to readjust the pH to 7.4.

The values that follow come from patent US7220414B2, “Degradable polyacetal polymers” (A.P. Pharma, Inc., priority 2000, dated 2007).

Consider Dextran, for which the “red blood cell (RBC) lysis” value is reported as “did not display RBC lysis”.
